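How tested: cells in 96-well plates exposed to compound for 48 hours at five concentrations. GI50: concentration for 50% inhibition of growth. At the TGI there is no net growth.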
How the values were obtained:
Assay in all cases: NCI tumour cell line growth inhibition, 48 h
A498 renal = test system: A498 renal
COLO 205 colon = test system: COLO 205 colon
HT29 colon = test system: HT29 colon
NCI-H23 lung = test system: NCI-H23 lung
RPMI-8226 leukemia = test system: RPMI-8226 leukemia
SNB-75 CNS = test system: SNB-75 CNS
SW-620 colon = test system: SW-620 colon
U251 CNS = test system: U251 CNS
SR leukemia = test system: SR leukemia
NCI/ADR-RES ovarian = test system: NCI/ADR-RES ovarian

Row | SMILES | TGI (A498 renal) | TGI (COLO 205 colon) | TGI (HT29 colon) | TGI (NCI-H23 lung) | TGI (RPMI-8226 leukemia) | TGI (SNB-75 CNS) | TGI (SW-620 colon) | TGI (U251 CNS) | TGI (SR leukemia) | GI50 (A498 renal) | GI50 (SNB-75 CNS) | GI50 (SW-620 colon) | GI50 (COLO 205 colon) | GI50 (HT29 colon) | GI50 (NCI-H23 lung) | GI50 (RPMI-8226 leukemia) | GI50 (SR leukemia) | GI50 (U251 CNS) | GI50 (NCI/ADR-RES ovarian) | TGI (NCI/ADR-RES ovarian)
1 | COc1cc([C@@H]2OC(=O)C3C2C(=O)O[C@H]3c2cc(OC)c(OC)c(OC)c2)cc(OC)c1OC (stereo partly drawn) | > 100 µM | > 100 µM | > 100 µM | > 100 µM | > 100 µM | > 100 µM | > 100 µM | > 100 µM |  |  |  |  |  |  |  |  |  |  |  | 
2 | N#CC(C#N)=C1SCC(=O)CS1 | > 100 µM | > 100 µM | > 100 µM | > 100 µM | > 100 µM | > 100 µM | > 100 µM | > 100 µM | > 100 µM |  |  |  |  |  |  |  |  |  |  | 
3 | N#C[S-].[Au+].c1ccc(CN2[CH-]N(Cc3ccccc3)C(c3ccccc3)=C2c2ccccc2)cc1 | 0.822 µM |  |  |  |  | 2.65 µM | 2.99 µM |  |  | 0.251 µM | 0.385 µM | 0.421 µM |  |  |  |  |  |  |  | 
4 | CCOC(=O)NC(=O)c1cn(CCN2CCN(C(=O)NCCCCCCNC(=O)N3CCN(CCn4cc(C(=O)NC(=O)OCC)c(=O)n(CCN(CC)CC)c4=O)CC3)CC2)c(=O)n(CCC(CC)CC)c1=O | > 100 µM | > 100 µM | > 100 µM | > 100 µM | > 100 µM | > 100 µM | > 100 µM | > 100 µM | > 100 µM |  |  |  |  |  |  |  |  |  |  | 
5 | C[CH2][Sn]([Cl])([Cl])[CH2]C | 43.7 µM | 34.8 µM | > 100 µM | 41.4 µM | 48.3 µM | > 61.7 µM | 39.8 µM | > 59.1 µM | > 100 µM | 23.4 µM | 24.9 µM | 20.8 µM | 19.1 µM | 55.2 µM | 19.9 µM | 17.1 µM | 25.3 µM | 27.4 µM |  | 
6 | C=C(C)[C@H](O)C(O)CC(C)[C@@H]1CCC23CC12CCC1[C@@]2(C)CCC(OC(C)=O)C(C)(C)C2CC(OC2OC(COC(C)=O)C(O)C(O)C2O)[C@]13C (stereo partly drawn) | 14.7 µM | 12.6 µM | 8.77 µM | 14 µM | 6.29 µM | 9.03 µM | 12 µM | 10.1 µM |  |  |  |  |  |  |  |  |  |  |  | 
7 | O=C1CCCC1NC(=O)C(F)(F)F (stereo not drawn) | > 100 µM |  | > 100 µM | > 100 µM |  | > 100 µM | > 100 µM | > 100 µM |  |  |  |  |  |  |  |  |  |  |  | 
8 | Clc1ccc(SCCCCCCCCCCSc2ccc(Cl)cc2)cc1 | > 100 µM | > 100 µM | > 100 µM | > 100 µM | > 100 µM | > 100 µM | 70.9 µM | > 69.8 µM |  |  |  |  |  |  |  |  |  |  |  | 
9 | c1ccc(SC(CCCCOC2CCCCO2)Sc2ccccc2)cc1 (stereo not drawn) | > 100 µM | > 100 µM | > 100 µM | > 100 µM | > 100 µM | > 100 µM | > 100 µM | > 100 µM |  |  |  |  |  |  |  |  |  |  |  | 
10 | Cc1cccc2c1C(=O)OC2(C)c1cccc2ccccc12 (stereo not drawn) |  |  | > 100 µM | > 100 µM | > 100 µM | 87.7 µM | > 100 µM | 73.8 µM | 68.7 µM |  |  |  |  |  |  |  |  |  |  | 
11 | COc1ccc2c(c1)CC1c3c(cc4c(c3-2)OCO4)CCN1C (stereo not drawn) | 31.7 µM | 30.9 µM | > 100 µM | 73.9 µM | 64.2 µM | 56.9 µM | 59.8 µM | > 100 µM |  |  |  |  |  |  |  |  |  |  |  | 
12 | C=CCN=C1NC(=O)C(CC(=O)Nc2ccc(C)cc2)S1 (stereo not drawn) | > 100 µM | > 100 µM | > 100 µM | > 100 µM | > 100 µM | > 100 µM | > 100 µM | > 100 µM |  |  |  |  |  |  |  |  |  |  |  | 
13 | Cc1cccc2c1C/C(=C1\CCc3c(C)cccc31)C2=O | > 100 µM | > 100 µM | > 100 µM | > 100 µM |  | > 100 µM | > 100 µM | > 100 µM | > 100 µM |  |  |  |  |  |  |  |  |  |  | 
14 | O=C(N/C(=C\c1ccc(Oc2ccc(Cl)c(Cl)c2)cc1)c1nc2ccccc2[nH]1)c1ccccc1 |  | 58 µM | 32.6 µM | 27.7 µM |  |  | 33.7 µM | 27.4 µM | 85 µM |  |  |  |  |  |  |  |  |  |  | 
15 | CC(C)C[C@@H]1NC(=O)[C@@H]2CCCN2C(=O)[C@@H]2CCCN2C(=O)[C@H](CC(C)C)NC(=O)[C@H](CO)NC(=O)[C@H](CCCCN)NC(=O)[C@H]([C@H](C)O)NC(=O)[C@@H]2CCCC[C@@H](NC1=O)C(=O)N[C@@H](Cc1ccccc1)C(=O)N1CCC[C@H]1C(=O)N[C@@H](CC(=O)O)C(=O)NCC(=O)N[C@@H](CCCN=C(N)N)C(=O)N2 |  | > 50 µM | > 50 µM | > 50 µM | > 50 µM |  | > 50 µM | > 50 µM |  |  |  | > 50 µM | > 50 µM | > 50 µM | > 50 µM | > 50 µM |  | > 50 µM | > 50 µM | > 50 µM
16 | NC(CCSC(F)F)C(=O)O (stereo not drawn) |  | > 100 µM | > 100 µM | > 100 µM |  | > 100 µM | > 100 µM | > 100 µM | > 100 µM |  |  |  |  |  |  |  |  |  |  | 
